Tests used:
[1] = tested on: barnyardgrass (Echinochloa crus-galli); experiment: Test A postemergence; format: in vivo; details: Echinochloa crus-galli, post-emergence, 240 h, 125 g ai/ha, postemergence, visual injury rating after approximately 10 d; read-out: Barnyardgrass plant response rating (0 to 100 scale, 0 no effect, 100 complete control)
Procedure, shortened: (§1)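 Preemergence soil spray on seeded pots or post-emergence spray on 1–2 leaf plants, in loam–sand blend. Greenhouse ~10 d. Visual rating 0–100 against untreated plants.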

[2] = tested on: blackgrass (Alopecurus myosuroides); experiment: Test A postemergence; format: in vivo; details: Alopecurus myosuroides, post-emergence, 240 h, 125 g ai/ha, postemergence, visual injury rating after approximately 10 d; read-out: Blackgrass plant response rating (0 to 100 scale, 0 no effect, 100 complete control)
Procedure, shortened: as §1

[3] = tested on: corn (Zea mays); experiment: Test A postemergence; format: in vivo; details: Zea mays, post-emergence, 240 h, 125 g ai/ha, postemergence, visual injury rating after approximately 10 d; read-out: Corn plant response rating (0 to 100 scale, 0 no effect, 100 complete control)
Procedure, shortened: as §1

[4] = tested on: giant foxtail (Setaria faberii); experiment: Test A postemergence; format: in vivo; details: Setaria faberi, post-emergence, 240 h, 125 g ai/ha, postemergence, visual injury rating after approximately 10 d; read-out: Foxtail, Giant plant response rating (0 to 100 scale, 0 no effect, 100 complete control)
Procedure, shortened: as §1

[5] = tested on: pigweed (Amaranthus retroflexus); experiment: Test A postemergence; format: in vivo; details: Amaranthus retroflexus, post-emergence, 240 h, 125 g ai/ha, postemergence, visual injury rating after approximately 10 d; read-out: Pigweed plant response rating (0 to 100 scale, 0 no effect, 100 complete control)
Procedure, shortened: as §1

Row | melting point | Structure (SMILES) | pest or weed control at 125 g/ha [1] | pest or weed control at 125 g/ha [2] | plant injury at 125 g/ha [3] | pest or weed control at 125 g/ha [4] | pest or weed control at 125 g/ha [5]
1 | 133 to 136 °C | CN1CC(c2cccc(C=O)c2)C(C(=O)Nc2ccccc2F)C1=O (stereo not drawn) [Compound 844] | 0% | 0% | 0% | 0% | 0%
2 | 150 to 153 °C | O=C1NCC(c2cccc(I)c2)C1C(=O)Nc1ccccc1F (stereo not drawn) [Compound 845] | 80% | 40% | 30% | 90% | 0%
3 | 192 to 195 °C | O=C1NC[C@H](c2cncc(C(F)(F)F)c2)[C@H]1C(=O)Nc1ccccc1F [Compound 887] | 80% | 0% | 0% | 70% | 0%
